Data as given in patent US20250375436A1, “SERDEXMETHYLPHENIDATE FOR TREATMENT OF IDIOPATHIC HYPERSOMNIA” (ZEVRA THERAPEUTICS, INC., priority 2024, published 2025).

Assay: Plasma PK of d-MPH after single oral dose administrations of 240, 360 and 480 mg SDX Cl

For `COC(=O)[C@H](c1ccccc1)[C@H]1CCCCN1C(=O)OC[n+]1cccc(C(=O)N[C@@H](CO)C(=O)O)c1.[Cl-]` [SDX Cl, 3-[[[(1S)-1-carboxy-2-hydroxyethyl]amino]carbonyl]-1-[[[[(2R)-2-[(1R)-2-methoxy-2-oxo-1-phenylethyl]-1-piperidinyl]carbonyl]oxy]methyl]pyridinium chloride], the CL/F (single oral dose 240 mg SDX Cl, N = 14) was 384 L/h, the CL/F (single oral dose 360 mg SDX Cl, N = 10) was 387 L/h and the CL/F (single oral dose 480 mg SDX Cl, N = 7) was 297 L/h.
